Experimental data published in US20080275014A1, “Clobetasol Propionate Shampoos for the Treatment of Seborrheic Dermatitis of the Scalp” (Galderma S.A., priority 2004, published 2008).

Assay: Clobetasol plasma levels
Type: in vivo, human
Settings: 45 subject plasma samples; after topical scalp treatment
Method: This study was conducted as a single center, randomized, investigator-masked and competitor comparison of 4 parallel groups involving Psoriasis and Scalp seborrheic dermatitis subjects. The aim of the trial was to evaluate the opthalmological irritation potential and the potential to suppress the HPA axis of Clobetasol Propionate Shampoo, 0.05%. During 4 weeks, psoriasis subjects had to treat their scalp once a day with Clobetasol Shampoo, 0.05% or with Dermoval/Temovate gel. Scalp seborrheic dermatitis subjects had to treat their scalp twice a week with Clobetasol Shampoo, 0.05% or on a day with Dermoval/Temovate gel.
Each subjects was submitted at each visit (each week during 4 weeks) to the following tests, ocular examination, HPA-axis function, local and general safety. First, opthalmological examination, measurement of intraocular pressure, detection of ocular subjective symptoms such as burning sensation, measurement of far and near visual acuity. Second, they were sampled for serum cortisol levels and were submitted to the Cosyntropin (Synacthene) stimulation assay. Cutaneous safety (skin atrophy using B-Scan ultra-sound and telangiectasis) and adverse events were also recorded. Systemic safety was also assessed by routine laboratory test and detection of Clobetasol Plasma levels, cutaneous safety, and DSS at the end of the study.

SMILES: CCC(=O)O[C@]1(C(=O)CCl)[C@@H](C)C[C@H]2[C@@H]3CCC4=CC(=O)C=C[C@]4(C)[C@@]3(F)[C@@H](O)C[C@@]21C [Clobatasol 17-propionate, clobetasol 17-propionate]
- amounts found in subject plasma samples: No detectable amounts
